Measured values as given in patent US20110268818A1, “NGAL-BINDING SIDEROPHORES AND USE THEREOF TO TREAT IRON DEFICIENCY AND IRON OVERLOAD” (priority 2008, published 2011).

Experiments:
Mouse stromal cells = test: Capture of NGAL:siderophore:55Fe by stromal cells; type: cell-based; details: bafilomycin inhibits vacuolar H+ ATPase
Experimental: Capture of NGAL:Siderophore:Iron. Mouse stromal cells (10^5) were grown in MEM, 10% FCS for 24 hrs and FCS subsequently removed. […] Cells were washed 3 times and extracted with 0.2% SDS.

[1] = Siderophore:iron binding assay (paper chromatography); details: 55Fe mobilised by compound on paper chromatogram developed in water; Yes/No
From the text: Siderophore:Iron Binding Assay. To test whether candidates bound iron directly, candidates (1 nmole) were mixed with ^55Fe (1 pmole), and then separated bound from free ^55Fe using paper chromatography developed in water.
Paper chromatography: The Fe-Siderophore Binding Assay: The concept underlying the Ngal-siderophore-Fe binding assay is that the urinary molecule provides an iron binding siderophore, and that the Ngal protein provides the carrier which retains the siderophore:Fe on the 10 KDa filter. […] To directly test this idea, we will mix 55Fe with HMDB compounds and then separate bound from free 55Fe by using paper chromatography. […] The assay also provides an independent means to follow the purification of the urinary siderophore. Using this assay, we can measure the specific activity of the fractions to identify the peak activity, as well as to compare the urinary fraction with enterochelin to establish relative units of activity.

NGAL [2] = target: T1, NGAL (Homo sapiens, UniProt P80188); test: NGAL:siderophore:iron binding assay (retention on 10 kDa filter); details: for NGAL: Chelator: Fe % Retention: apoNGAL 10 μM, 55Fe, compound 10 μM, pH 7.4, washed on 10 kDa filter; for NGAL-siderophore-Fe binding activity (in words): iron retention by NGAL on filter
T1 construct: made in house; host or cells: E. coli BL-21
Experimental: NGAL:Siderophore:Iron Binding Assays. […] After 60 minutes, the mixture was washed 3 times (YM-10) or alternatively gel filtered (PD-10, GE Biosciences). Ent loaded NGAL served as a positive control. Ferric citrate (1 mM) or Ent:iron (500 μM) served as competitors of ^55Fe binding.
After 60 minutes at room temperature, the mixture was then washed 3 times on a 10-kDa membrane (Amicon YM-10; Millipore Corp.). Ngal loaded with iron-free enterochelin (rather than apo-Ngal) served as a positive control for iron capture. Ferric citrate (1 mM) or iron-loaded enterochelin (siderophore:Fe, […]) was used as a competitor of 55Fe binding.

NGAL [3] = target: T1, NGAL; test: Fluorescence quenching binding assay
Experimental: Fluorescence quenching binding assay. […] The pH was adjusted until the fluorescence signal stopped changing, while fluorescence values were corrected for dilution. […] Control experiments were performed to ensure the stability of the protein at experimental conditions, including the dilution and the addition of DMSO and ubiquitin.

NGAL [4] = target: T1, NGAL; test: Release of ligands and iron from NGAL complexes by acidification; type: physicochemical; details: fluorescence and 55Fe release
From the text: FIGS. 6A-6C. Release of ligands from NGAL by acidification. […] Fluorescence was quenched by ligand binding. Upon acidification, the ligands were released and fluorescence returned to baseline. Subsequent basification, where relevant, caused rebinding. Note that NGAL:pyrogallol and 2,3-dihydroxybenzoic acid complexes required much lower pH for dissociation. (B) Release of ^55Fe from different NGAL:catecholate complexes by low pH washes on a 10 KDa microcon. For this comparison, the retention of iron at pH7.0 was defined as 100%. […] Data were presented as mean±Std.
To transport iron from plasma to cells there has to be a mechanism for releasing iron from the complex. Intracellular delivery of iron by transferring is known to require passage through acidified endosomes where iron is released. […] While the complex was stable at neutral pH, acidification below pH 7.0 progressively reversed ligand-dependent fluorescence quenching of NGAL and released iron (FIG. 6A, B).
Fluorescence quenching binding assay. […] The pH was adjusted until the fluorescence signal stopped changing, while fluorescence values were corrected for dilution. Data were analyzed by a nonlinear regression analysis using a one-site binding model (Kuzmic, P. (1996). Program DYNAFIT for the analysis of enzyme kinetic data: application to HIV proteinase. Anal. Biochem. 237, 260-273). […]

[5] = Catechol and iron traffic to the kidney in vivo; details: mouse
[6] = Hydroxyl radicals detected by conversion of HPF to fluorescein; type: biochemical; details: catechol, ferric iron and H2O2
From the text: NGAL Blocks Iron Induced Hydroxyl Radicals. […] Hydroxyl radicals were detected by the conversion of HPF to fluorescein (Setsukinai, K., Urano, Y., Kakinuma, K., Majima, H. J., Nagano, T. (2003). Development of Novel Fluorescence Probes That Can Reliably Detect Reactive Oxygen Species and Distinguish Specific Species. J Biol Chem. 278, 170-3175) using […].

[7] = Free catechol stability in solution monitored by NMR; type: physicochemical; details: monitored for 20 hrs by NMR, D2O
From the text: J. Agric Food Chem. 54, 5755-5762; Carmella, S. G., La, V. E. J., Hecht, S. S. (1982). […] Food Chem Toxicol. 20, 587-590) and aromatic amino acids (˜50%; Martin et al., 1982; Carmella et al., 1982; Bakke, O. M. (1969). Urinary simple phenols in rats fed purified and nonpurified diets. J. Nutr. 98, 209-216). […] Using urinary biomarkers to elucidate dose-related patterns of human benzene metabolism. Carcinogenesis 27, 772-781), whereupon they are sulfonated (Rennick, B., Quebbemann, A. (1970). Site of excretion of catechol and catecholamines: renal metabolism of catechol. Am. J. Physiol. 218, 1307-1312).

[8] = Catechol sulfate stability followed by silica gel TLC; type: physicochemical
From the text: FIG. 29 is a reproduction of Silical gel TLC developed by Dichlorlmethane: MeOH:H2O=5:1:0.1, and colored by 12.

[9] = Reduction of Fe3+ to Fe2+ detected with phenanthroline; type: biochemical; details: catechols 45 μM, ferric iron 15 μM, NGAL 15 μM

Molecule	Fe: Chromatography [1]	NGAL: Chelator: Fe % Retention (NGAL [2])	NGAL-siderophore-Fe binding activity (in words) (NGAL [2])	pH at which the NGAL:ligand:iron complex dissociates (NGAL [4])	conversion of HPF to fluorescein (hydroxyl radical formation) [6]	other results
CO/C1=C\C(C)=C\[C@@H](C)[C@@H](O)[C@@H](C)C/C(C)=C/C=C/[C@H](OC)[C@@H]([C@@H](C)[C@@H](O)[C@H](C)[C@@]2(O)C[C@@H](O)[C@H](C)[C@@H](C(C)C)O2)OC1=O [bafilomycin]						iron donation from NGAL:catechol:iron complex to cells (Mouse stromal cells): blocked
Cc1ccc(O)c(O)c1 [4-methylcatechol]	Yes	29%	highest activities			affinity for NGAL (in words) (NGAL [3]): low affinity
Oc1ccccc1O [Catechol]		56%	most active compound	5.5 pH	Conversion of HPF to fluorescein occurs	NGAL-siderophore-Fe binding activity (in words) (NGAL [2]; listed as catechol): highest activities; increase in binding affinity for NGAL in the presence of iron (NGAL [3]; with iron vs without iron): 10^5; clearance of free 14C-catechol by organs [5]: rapidly cleared; stability of free catechol in solution [7]: stable in solution
O=S(=O)([O-])Oc1ccccc1O.[Na+]		4%				stability in methanol at pH≦6 ([8]; incubated for 1 hour): decompose; stability in urine ([8]; incubated for 48 hours): stable
Cc1cccc(O)c1O [3-methylcatechol]	Yes	56%	highest activities	5.5 pH		
NGAL: Neutrophil Gelatinase Associated Lipocalin, recombinant protein (protein, UniProt P80188 21-198, looked up) Neutrophil …: QDSTSDLIPAPPLSKVPLQQNFQDNQFQGKWYVVGLAGNAILREDKDPQKMYATIYELKEDKSYNVTSVLFRKKKCDYWIRTFVPGCQPGEFTLGNIKSYPGLTSYLVRVVSTNYNQHAMVFFKKVSQNREYFKITLYGRTKELTSELKENFIRFSKSLGLPENHIVFPVPIDQCIDG					blocked the reaction	reduction of ferric iron to ferrous iron (phenanthroline) [9]: blocked the reaction
